Patent US6677302B2, “Compositions and methods for the treatment of viral disorders” (The Trustees of Boston University, priority 1996, dated 2004)
“Also recorded” adds a separate entry of the source.

Tests used:
[1] = Clinical toxicity in patients; type: in vivo, human; conditions: for grade 3 or 4 toxicities: patients treated up to 2,000 mg/kg/day
Protocol: (§1) Clinical experience with butyrates have been performed in children with acute myelogenous leukemia in Israel, and in children with neuroblastoma (K. Prasad, Life Sci. 27:1351-58, 1980). […] Eleven pediatric patients and twelve adults with β-hemoglobinopathies were treated with IV arginine butyrate at a starting dose of 500 mg/kg/day for 2-7 weeks. If no side effects were noted, the rate was increased by 250 mg/kg/day to a final rate of 1500 mg/kg/day in 4 patients, and 2000 mg/kg/day in 2 patients. […] This rise in BUN returned to normal within 12 hours of discontinuation of drug, and is thought to be secondary to effect of arginine upon ureagenesis. […] Peak serum levels of butyrate ranged between 0.04-0.05 mM, and butyrate was not detectable 15 minutes after infusion was discontinued. Plasma arginine levels were also rapidly cleared, with a T1/2 of 15 minutes, and baseline arginine levels were reached within 12 hours after discontinuation of infusion.
Three patients with refractory neoplasms (breast, melanoma, adenocarcinoma, of unknown primary) have been enrolled and completed 1-2 cycles of arginine butyrate as a dose of 500 mg/kg/day over 6-8 hours for 10 days.
Three patients (with breast cancer, bowel cancer or Hodgkins disease) have completed two cycles of arginine butyrate at a dose of 750 mg/kg/day for 10 days. […] Otherwise, there was no other objective measures of organ progressed after treatment was topped. […] There was a further resolution of the disease during the second cycle. Disease progression was noted one month after second cycle was completed. At 1000 mg/kg/day, 3 patients have been enrolled on study.
An inter-group dose-escalation study is being conducted in patients with refractory malignancies. There are 3 patients per group with the dose levels starting at 500 mg/kg/day, and increasing by 250 mg/kg/day per group, if toxicity permits. Doses are given by 8 hour IV infusion, daily, for 5 days times 2 weeks, with weekends off, for a total of 10 days of treatment per cycle.

[2] = test system: EBV+ and EBV− cell lines (X50-7, Akata, HPB-ALL, Nalm-6); assay: Growth of EBV+ and EBV− cell lines; type: cell-based, human
Description: In some experiments sodium was used instead of arginine to neutralize butyric acid. […] Cell lines used were X50-7, a latent EBV+ B-cell lymphoma; Akata, a producer EBV+ Burkitt's lymphoma; HPB-ALL, a T-cell line; and Nalm-6, an EBV− B-cell line. Growth curves for X50-7 cells in different concentrations of sodium butyrate are shown in FIG. 8b and the growth curves for HPB-ALL cells in different concentrations of sodium butyrate are shown in FIG. 8c.

[3] = test system: Human Neuroblastoma Cell Line, SK-N-MC; assay: Proliferation of neuroblastoma cells, 4 weeks continuous exposure; type: cell-based; conditions: no treatment 1 × 10^8
Protocol: Human neuroblastoma cell line SK-N-MC was studied under different conditions. In this case, the cells were grown for 4 weeks with continuous exposure to sodium butyrate or arginine butyrate, and the cell number was quantitated at the end of this time.

[4] = Stability testing of arginine butyrate solution; type: physicochemical; conditions: solution for injection
Description: (§2) Butyric acid is a short chain fatty acid present in foods such as dairy products. Arginine is an amino acid which is commonly used in hyperalimentation solutions in hospitals throughout the country. Butyric acid was obtained from Aldrich, catalog number W-212. L-Arginine is anhydrous. Arginine was combined with butyric acid, pH 5.0-5.5, in sterile, non-pyrogenic water for injection to neutralize the fatty acid. The solution was filtered through a Millipore System at a final concentration for injection of 100 mg/ml or 25 mg/ml. Each lot was pyrogen tested and tested for sterility and purity. […] Since 10% arginine butyrate solution is hypertonic (100 mg/ml), it must be infused through a long or deep IV access to avoid peripheral venous irritation. Arginine butyrate was infused via an infusion pump. European pharmacokinetic studies of arginine butyrate given as a “slow” and 90 minute bolus of 500 mls of a 5% solution (2.5 g/M in two normal volunteers, and found a 15 minute elimination period. Plasma levels from patients with hemoglobinopathies have shown that butyric acid disappears within 5 to 15 minutes after an infusion of up to 2,000 mg/kg/day.

fetal globin mRNA = assay: Fetal globin mRNA response in patients; type: in vivo, human; conditions: β-hemoglobinopathies; IV 500 to 2,000 mg/kg/day, 2-7 weeks
Protocol: Eleven pediatric and twelve adult patients with β-hemoglobinopathies have been treated with IV arginine butyrate at a starting dose of 500 mg/kg/day for 2-7 weeks. Dose escalation at the rate of 250 mg/kg/day to a maximum of 2,000 mg/kg/day was permitted.

[5] = Clinical pharmacokinetics of butyrate infusion; type: in vivo, human; conditions: patients with β-hemoglobinopathies
Protocol: as §1, §2
In vitro, peaks induction of EBV-TK plateaus at serum level of around 1 mM. […] Therefore, dose levels up to 2,000 mg/kg/day, were evaluated in an attempt to reach serum levels of 1 mM. Treatment cycles were of 4 week duration, with 3 weeks on treatment and one week off. Patients were given the standard dose of GCV throughout each 21 day course of arginine butyrate, starting, however, on day 0. Arginine butyrate was given by continuous IV infusion at 500 mg/kg/day for 2 days, at 1,000 mg/kg/day for 2 days, at 1,500 mg/kg/day for 2 days, and thereafter at 2,000 mg/kg/day, or as tolerated, for the rest of the 21 day course. Cycle 2 was begun on Day 29. […]

Gastric Carcinoma (AGS) = assay: Differentiation of tumor cell line; type: cell-based, human
Protocol: The effects of arginine butyrate compounds on differentiation of several human tumor cell lines were evaluated by visual inspection and by histochemical and pathological staining:
Although HLA antigens are expressed on normal, fully differentiated cells, they are not expressed or are minimally expressed on most neoplastic cells. In this way neoplastic cells escape recognition by the cellular arm of the immune system and are able to survive.

[6] = European pharmacokinetic studies; 500 mls of a 5% solution; two normal volunteers; cited from earlier work

arginine butyrate
patients with grade 1 nausea/vomiting ([1]; 500 mg/kg/day, three patients): Two of the three patients
patients with grade I nausea/vomiting ([1]; 750 mg/kg/day for 10 days, three patients): One of the three patients; also recorded: One, of the three patients
serum BUN ([1]; 750 mg/kg/day, one patient): transient elevation of serum BUN
time to resolution of BUN elevation and proteinuria after discontinuation ([1]; 750 mg/kg/day, one patient): ≤ 5 days
toxic side effects ([1]; adults, IV infusion of similar doses): no toxic side effects
grade 3 or 4 toxicities ([1]; listed as Arginine butyrate): no grade 3 and no grade 4 toxicities reported
grade 3 or 4 toxicities ([1]; listed as arginine butyrate): no grade 3 or 4 toxicities
organ specific toxicity ([1]; recorded by principal investigators): No organ specific toxicity was recorded
objective toxicities (hepatic, renal, cardiac, pulmonary, hematopoietic) ([1]; refractory neoplasms, 500 mg/kg/day over 6-8 hours for 10 days): no objective toxicities noted
untoward side effects ([1]; three cancer patients, emergency basis, up to 2,000 mg/kg/day, 10 days): no untoward side effects noted
side effect: anorexia ([1]; β-hemoglobinopathies, IV 500-2000 mg/kg/day): Transient anorexia developed in one patient
side effect: serum aminotransferase ([1]; β-hemoglobinopathies, IV 500-2000 mg/kg/day, 2-7 weeks): transient, slight rise in serum aminotransferase
time for rise in BUN to return to normal after discontinuation ([1]; β-hemoglobinopathies, continuous infusion over 2 weeks): ≤ 12 h
effect on cell growth ([2]; 1 mM): cytostatic to some cell lines and permitted normal cell growth in others
effect on cell growth ([2]; 2 mM and 3 mM): cytocidal to most EBV+ and EBV− cell lines
Cell Number ([3]; 0.05 mM): 1 × 10^5
Cell Number ([3]; 1.0 mM): <1 × 10 ^3
stability in glass containers [4]: up to 404 days
response as judged by increase in fetal globin mRNA (fetal globin mRNA): most patients showed response
Plasma arginine T1/2 ([5]; IV): 15 min
time after discontinuation of infusion at which butyrate was not detectable ([5]; IV): 15 min
time to baseline arginine levels after discontinuation of infusion ([5]; IV): ≤ 12 h
Peak serum levels of butyrate ([5]; IV 500 up to 2000 mg/kg/day): 0.04 to 0.05 mM
differentiation marker expression (Gastric Carcinoma (AGS)): began to express mucin
elimination period [6]: 15 min
